The source of these data is PMC10650955, “α-Aminophosphonate inhibitors of metallo-β-lactamases NDM-1 and VIM-2” (RSC Medicinal Chemistry, 2023).

Structures are written as SMILES. Counter-ions that a name gives are not always drawn.

In test [1] the target is T1, VIM-2 (Escherichia coli, UniProt Q5U7L7).
T1 construct: made in house
As to the kind of experiment: Dose rate inhibition studies for IC50 determination, VIM-2 enzymatic assay. The settings on record: Enzyme IC50 VIM-2, 0.1 nM VIM-2, 100 μM ZnCl2, nitrocefin substrate, inhibitor 0-800 μM, 3 parallel measurements; N.I. = no enzyme inhibitory activity observed. It counts as biochemical. As to the method: (§1) The […] synthesized compounds 5a–l were tested for their inhibitory activities against NDM-1, VIM-2 (Table 1), and GIM-1 in an in vitro enzymatic assay (ESI ^†).[41] The inhibitory activity was measured using enzyme concentrations of 0.1 nM VIM-2, 10 nM NDM-1 or 1 nM GIM-1, with an excess Zn(II) (100 μM, see Experimental methods), with inhibitor compounds with concentrations from 0 to 800 μM. Each data point was measured in triplicates. […] This is in line with previous reports.[42,43]
(§2) A 100 μl solution with buffer (50 mM HEPES (pH 7.2), 100 μM ZnCl2, 2.5% DMSO), purified enzyme (0.1 nM VIM-2, 10 nM NDM-1 or 1 nM GIM-1) and 800–0 μM inhibitor was incubated in a 96 well plate at 25 °C for 5 min. In addition, the enzyme buffer contained 400 μg ml^−1 bovine serum albumin (BSA) to prevent protein unfolding and loss of activity due to low concentrations.[67,68] 100 μM of the reporter substrate nitrocefin (VIM-2, GIM-1) or imipenem (NDM-1) was added to the enzyme–inhibitor solution and the increase in absorbance at 482 nm (nitrocefin) or 300 nm (imipenem) was recorded on a Spectramax M4 spectrophotometer (Molecular Devices). Each data point was performed in triplicates and the initial velocity for each inhibitor concentration was analyzed by a log [inhibitor] vs. response curve fitting to calculate IC50 in GraphPad Prism 9.2 software.

Test [2] has as its target T2, NDM-1 (Klebsiella pneumoniae, UniProt C7C422).
T2 construct: made in house
Put plainly: Dose rate inhibition studies for IC50 determination, NDM-1 enzymatic assay. Type of test: biochemical. Particulars: inhibitor 0-800 μM, 3 parallel measurements, N.I. = no enzyme inhibitory activity observed. As to the method: as §1, §2

Test [3] addresses T3, 15N-labelled VIM-2 (Escherichia coli, UniProt Q5U7L7).
T3 construct: made in house
Put plainly: 1H,15N HSQC NMR chemical shift perturbation titration, VIM-2. The settings on record: VIM-2 Kd, 0-16 equiv. ligand, pH 7.0, 310 K. It counts as binding. On the procedure:
(§3) Solution NMR spectroscopy is a powerful tool to assess protein–ligand interactions under close to physiological conditions.[47] We, therefore, performed NMR chemical shift perturbation (CSP, for details, see section S8, ESI ^†) experiments to identify the amino acid residues of NDM-1 and VIM-2 that are involved in inhibitor binding, making use of the previously published protein assignments.[48,49] Titrations were conducted using ^15N-labelled proteins with 0, 0.5, 1, 2, 4, 8, and 16 equiv. of 5 inhibitors for NDM-1 and of 7 inhibitors for VIM-2.
(§4) For the titrations, ^15N-labelled NDM-1 and ^15N-labelled VIM-2 (250 μM), and titrated ligands (0.5 equiv. in 1 μL) were prepared in the same buffer as the protein (20 mM KPO4, 0.1 mM ZnCl2, pH 7.0 with 10% D2O and 2.5% DMSO-d6). ^1H,^15N HSQC spectra were acquired with 128 × 1024 complex points (F1 × F2) and spectral width of 9090 × 2740 Hz on ^15N-labeled NDM-1/VIM-2 and with every titration step up to 1 : 16 ratio between protein : ligand (0, 0.5, 1, 2, 4, 8, and 16 equiv. of ligand). All experiments were recorded on a Bruker 600 MHz spectrometer at 310 K equipped with a 5 mm TCI cryogenic probe. The NMR data were processed on the MestReNova software with the Mnova Binding plugin. The weighted average chemical shift perturbations (CSP) for the backbone amides were calculated from the observed chemical shift differences in the proton and nitrogen dimensions using the equation (chemical shift scaling factors: FH = 1, FN = 0.156) CSP = Δδ1H,15N = [drawing 13] .
(§5) 7. Chemical shift perturbation histograms
(§6) Chemical shift perturbation was calculated according equation (1) 2
(§7) CSP = Δδ(1H,15N) = √(Δδ1H2 + (1⁄R × Δδ15N2) Rscale = 6.5 (1)
(§8) Where Δδ1H is the chemical shift change for proton dimension, Δδ15N is the chemical shift change for nitrogen dimension, Rscale is a
(§9) The chemical shift perturbations (CSP) were classified as significant (SSP) when the observed Δδ(1H,15N) was greater than the population
(§10) mean plus the standard deviation (µ+1σ) – solid line; (µ+2σ) – dashed line, and (µ+3σ) – dashed line.
(§11) Further on, Kd was calculated according: 3
(§12) ([P]+[L]+Kd)− √([P]+[L]+Kd)2−4[P][L]
(§13) ΔδmaxΔδobs = Δδmax 2[P] (2)
(§14) Where Kd is the dissociation constant, [P] and [L] are protein and ligand concentrations, respectively. Δδmax were estimated in
(§15) MestReNova by extrapolation of the obser ved chemical shift differences Δδobs.

Test [4] addresses T4, 15N-labelled NDM-1 (Klebsiella pneumoniae, UniProt C7C422).
T4 construct: made in house
As to the kind of experiment: 1H,15N HSQC NMR chemical shift perturbation titration, NDM-1. Type of test: binding. As to the method: as §3, §4, §5, §6, §7, §8, §9, §10, §11, §12, §13, §14, §15

T4 sequence (C7C422 29-270 limits assumed): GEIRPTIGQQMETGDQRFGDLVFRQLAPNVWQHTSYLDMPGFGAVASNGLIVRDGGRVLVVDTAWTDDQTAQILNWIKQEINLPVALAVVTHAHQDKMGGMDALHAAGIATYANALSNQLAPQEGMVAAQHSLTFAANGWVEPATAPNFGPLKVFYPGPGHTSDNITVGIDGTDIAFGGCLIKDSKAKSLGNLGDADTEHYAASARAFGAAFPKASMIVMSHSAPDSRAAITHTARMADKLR
T2 sequence (C7C422 29-270 limits assumed): as above

Regarding `O=C(NC(C1CCCCN1)P(=O)(O)O)c1cccs1` (stereo not shown) [Compound 5b-2, (Piperidin-2-yl(thiophene-2-carboxamido)methyl)phos-phonic acid hydrochloride], the half-maximal inhibitory concentration (IC50) (as a rule, the concentration needed to halve the response being measured) in test [1] came out at 0.0072 ± 0.0004 mM. For the same molecule, in test [2] (10 nM NDM-1, 100 μM ZnCl2, imipenem substrate), the “Enzyme IC50 NDM-1” value is given as “N.I”. Moreover, the Kd (commonly a measure of binding affinity in units of concentration) in test [3] is 1.4 ± 0.1 mM.

For the molecule `O=C(Cc1ccsc1)NC(C1CCCCN1)P(=O)(O)O` (stereo not shown) [Compound 5j-1, (Piperidin-2-yl(2-(thiophen-3-yl)acetamido)methyl)phos-phonic acid hydrochloride], the Kd in test [4] (Estimated binding constant (Kd), residue 070F, Table S5, per-residue fit, NDM-1 070F) is 2.54 mM; in test [4] (Estimated binding constant (Kd), residue 091T, Table S5, per-residue fit, NDM-1 091T), 2.11 mM; in test [4] (Estimated binding constant (Kd), residue 108E, Table S5, per-residue fit, NDM-1 108E), 3.54 mM; in test [4] (Estimated binding constant (Kd), residue 119T, Table S5, per-residue fit, NDM-1 119T), 7.97 mM; in test [4] (Estimated binding constant (Kd), residue 124D, Table S5, per-residue fit, NDM-1 124D) it was 12.4 mM; in test [4] (Estimated binding constant (Kd), residue 127G, Table S5, per-residue fit, NDM-1 127G) it was 12.4 mM. Moreover, the Kd in test [4] (Estimated binding constant (Kd), residue 133H_225D, Table S5, per-residue fit, NDM-1 133H_225D) was 1.42 mM; in test [4] (Estimated binding constant (Kd), residue 149A, Table S5, per-residue fit, NDM-1 149A), 3.18 mM; in test [4] (Estimated binding constant (Kd), residue 152E, Table S5, per-residue fit, NDM-1 152E) it was 32.9 mM; in test [4] (Estimated binding constant (Kd), residue 159H, Table S5, per-residue fit, NDM-1 159H), 8.39 mM; in test [4] (Estimated binding constant (Kd), residue 160S, Table S5, per-residue fit, NDM-1 160S) it was 15.7 mM; in test [4] (Estimated binding constant (Kd), residue 188G, Table S5, per-residue fit, NDM-1 188G) it was 6.63 mM. The Kd in test [4] (Estimated binding constant (Kd), residue 194I, Table S5, per-residue fit, NDM-1 194I) is 6.1 mM; in test [4] (Estimated binding constant (Kd), residue 197G, Table S5, per-residue fit, NDM-1 197G) it was 3.05 mM; in test [4] (Estimated binding constant (Kd), residue 205F, Table S5, per-residue fit, NDM-1 205F), 8.41 mM; in test [4] (Estimated binding constant (Kd), residue 206G, Table S5, per-residue fit, NDM-1 206G), 7.72 mM; in test [4] (Estimated binding constant (Kd), residue 214K, Table S5, per-residue fit, NDM-1 214K), 1.96 mM; in test [4] (Estimated binding constant (Kd), residue 217S, Table S5, per-residue fit, NDM-1 217S), 8.15 mM. For the same molecule, the Kd was 4.94 mM in test [4] (Estimated binding constant (Kd), residue 228H, Table S5, per-residue fit, NDM-1 228H); 1.31 mM in test [4] (Estimated binding constant (Kd), residue 229Y, Table S5, per-residue fit, NDM-1 229Y); 8.81 mM in test [4] (Estimated binding constant (Kd), residue 230A, Table S5, per-residue fit, NDM-1 230A); 21.3 mM in test [4] (Estimated binding constant (Kd), residue 232S, Table S5, per-residue fit, NDM-1 232S); 8.64 mM in test [4] (Estimated binding constant (Kd), residue 248M, Table S5, per-residue fit, NDM-1 248M); 34 mM in test [4] (Estimated binding constant (Kd), residue 249S, Table S5, per-residue fit, NDM-1 249S). Further, the dissociation constant (Kd) in test [4] (Estimated binding constant (Kd), residue 251S, Table S5, per-residue fit, NDM-1 251S) is 12.3 mM; in test [4] (Estimated binding constant (Kd), residue 254D, Table S5, per-residue fit, NDM-1 254D), 9.29 mM; in test [4] (Estimated binding constant (Kd), residue 255S, Table S5, per-residue fit, NDM-1 255S) it was 18.6 mM; in test [4] (NDM-1 Kd, NMR chemical shift perturbation, 0-16 equiv. ligand, pH 7.0, 310 K), 2.2 ± 0.2 mM; in test [3], 0.9 ± 0.1 mM. Moreover, the IC50 in test [1] came out at 0.319 ± 0.069 mM; in test [2] (Enzyme IC50 NDM-1, 10 nM NDM-1, 100 μM ZnCl2, imipenem substrate), 0.506 ± 0.333 mM.
